# Measurements from ChEMBL document CHEMBL1129104, “Synthesis and evaluation of 2-(biphenylmethyl)glutaric acid amide derivatives as neutral endopeptidase inhibitors” (Bioorg Med Chem Lett, 1996).
# Molecular target: Neprilysin (Homo sapiens, UniProt P08473)
# Experiment: In vitro inhibition of Neutral Endopeptidase
# Neprilysin, sequence (P08473 whole entry): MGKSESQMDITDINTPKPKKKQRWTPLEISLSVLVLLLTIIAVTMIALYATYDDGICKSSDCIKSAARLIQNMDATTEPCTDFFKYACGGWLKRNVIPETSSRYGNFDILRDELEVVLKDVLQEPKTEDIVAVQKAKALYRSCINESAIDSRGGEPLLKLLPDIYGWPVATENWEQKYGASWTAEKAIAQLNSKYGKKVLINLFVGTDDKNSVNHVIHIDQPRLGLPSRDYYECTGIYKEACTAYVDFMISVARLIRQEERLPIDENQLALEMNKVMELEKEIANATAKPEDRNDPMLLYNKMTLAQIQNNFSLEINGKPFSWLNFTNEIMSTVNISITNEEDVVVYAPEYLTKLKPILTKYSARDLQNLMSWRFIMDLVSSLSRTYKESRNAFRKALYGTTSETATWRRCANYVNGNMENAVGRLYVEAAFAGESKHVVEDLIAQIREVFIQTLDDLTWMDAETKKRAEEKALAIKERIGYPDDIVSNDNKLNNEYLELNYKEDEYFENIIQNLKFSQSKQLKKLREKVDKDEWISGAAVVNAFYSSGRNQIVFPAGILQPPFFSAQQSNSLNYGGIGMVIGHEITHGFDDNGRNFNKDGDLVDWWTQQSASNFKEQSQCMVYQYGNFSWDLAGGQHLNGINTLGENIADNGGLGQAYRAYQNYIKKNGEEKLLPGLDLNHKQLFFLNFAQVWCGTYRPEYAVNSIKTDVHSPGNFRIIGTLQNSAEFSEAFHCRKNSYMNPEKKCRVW
row,Compound,IC50
1,COCCOCC(CC1(C(=O)N[C@H]2CC[C@@H](C(=O)O)CC2)CCCC1)C(=O)Oc1ccc2c(c1)CCC2 (some centres not stated),65 nM
2,O=C(O)C(COc1ccccc1)C[C@@H](Cc1ccc(-c2ccccc2)cc1)C(=O)NCc1nn[nH]n1 (some centres not stated),19 nM
3,CC(C[C@@H](Cc1ccc(-c2ccccc2)cc1)C(=O)Nc1nc(CC(=O)O)cs1)C(=O)O (some centres not stated),58 nM
4,O=C(O)Cc1csc(NC(=O)[C@H](Cc2ccc(-c3ccccc3)cc2)C[C@H](COc2ccccc2)C(=O)O)n1,3.3 nM
5,O=C(O)Cc1csc(NC(=O)[C@H](Cc2ccc(-c3ccccc3)cc2)C[C@@H](COc2ccccc2)C(=O)O)n1,0.69 nM
6,O=C(O)CNC(=O)[C@H](Cc1ccc(-c2ccccc2)cc1)C[C@@H](COc1ccccc1)C(=O)O,3.2 nM
7,CCCCC(C[C@@H](Cc1ccc(-c2ccccc2)cc1)C(=O)Nc1nc(CC(=O)O)cs1)C(=O)O (stereo in doubt),9.8 nM

# More lines, in order of falling IC50, values ahead:
row,IC50,Compound
1,122 nM,O=C(O)CC[C@@H](Cc1ccc(-c2ccccc2)cc1)C(=O)Nc1nc(CC(=O)O)cs1
2,92 nM,O=C(O)Cc1nnc(NC(=O)[C@H](Cc2ccc(-c3ccccc3)cc2)CC(COc2ccccc2)C(=O)O)s1 (some centres not stated)
3,10 nM,"CCCCC(C[C@@H](Cc1ccc(-c2ccccc2)cc1)C(=O)Nc1nc(CC(=O)O)cs1)C(=O)O (single isomer, unassigned; isomer A)"
4,7.4 nM,O=C(O)C(COc1ccccc1)C[C@@H](Cc1ccc(-c2ccccc2)cc1)C(=O)Nc1nnn[nH]1 (some centres not stated)
5,5.9 nM,O=C(O)CNC(=O)[C@H](Cc1ccc(-c2ccccc2)cc1)C[C@H](COc1ccccc1)C(=O)O
